Assay results published in the supplement of paper PMC10307832.

How the values were obtained:
Assay in all cases: relative viability (nuclei count vs DMSO), 5 days (fraction); higher = more cells survive
Selumetinib + OSI-027 = compound: Cn1cnc2c(F)c(Nc3ccc(Br)cc3Cl)c(C(=O)NOCCO)cc21 [Selumetinib] + COc1cccc2cc(-c3nc([C@H]4CC[C@H](C(=O)O)CC4)n4ncnc(N)c34)[nH]c12 [OSI-027] (partner 0.5 µM)
Outline: (§1)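 Each reported value is a median over duplicate plates. It expresses relative viability: treated-well nuclei count divided by vehicle-well nuclei count. Lung cancer cell lines in 1536-well plates were dosed by pin tool a day after seeding, alone with one drug or with a fixed anchor-drug dose plus five library-drug doses (not always all listed) in √10 steps, and nuclei were counted after 5 days.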

Selumetinib + Trametinib = compound: Cn1cnc2c(F)c(Nc3ccc(Br)cc3Cl)c(C(=O)NOCCO)cc21 [Selumetinib] + CC(=O)Nc1cccc(-n2c(=O)n(C3CC3)c(=O)c3c(Nc4ccc(I)cc4F)n(C)c(=O)c(C)c32)c1 [Trametinib] (partner 0.02 µM)
Outline: as §1

Venetoclax + Olaparib = compound: CC1(C)CCC(CN2CCN(c3ccc(C(=O)NS(=O)(=O)c4ccc(NCC5CCOCC5)c([N+](=O)[O-])c4)c(Oc4cnc5[nH]ccc5c4)c3)CC2)=C(c2ccc(Cl)cc2)C1 [Venetoclax] + O=C(c1cc(Cc2n[nH]c(=O)c3ccccc23)ccc1F)N1CCN(C(=O)C2CC2)CC1 [Olaparib] (partner 8 µM)
Outline: as §1

Selumetinib + Crizotinib = compound: Cn1cnc2c(F)c(Nc3ccc(Br)cc3Cl)c(C(=O)NOCCO)cc21 [Selumetinib] + C[C@@H](Oc1cc(-c2cnn(C3CCNCC3)c2)cnc1N)c1c(Cl)ccc(F)c1Cl [Crizotinib] (partner 1 µM)
Outline: as §1

Row | Cell Line | relative viability (Selumetinib + OSI-027; first compound 0.02 µM) | relative viability (Selumetinib + OSI-027; first compound 0.06325 µM) | relative viability (Selumetinib + OSI-027; first compound 0.2 µM) | relative viability (Selumetinib + OSI-027; first compound 0.6325 µM) | relative viability (Selumetinib + Trametinib; first compound 0.02 µM) | relative viability (Selumetinib + Trametinib; first compound 0.06325 µM) | relative viability (Selumetinib + Trametinib; first compound 0.2 µM) | relative viability (Selumetinib + Trametinib; first compound 0.6325 µM) | relative viability (Venetoclax + Olaparib; first compound 0.01 µM) | relative viability (Venetoclax + Olaparib; first compound 0.03162 µM) | relative viability (Venetoclax + Olaparib; first compound 0.1 µM) | relative viability (Venetoclax + Olaparib; first compound 0.3162 µM) | relative viability (Venetoclax + Olaparib; first compound 1 µM) | relative viability (Selumetinib + Crizotinib; first compound 0.02 µM) | relative viability (Selumetinib + Crizotinib; first compound 0.06325 µM) | relative viability (Selumetinib + Crizotinib; first compound 0.2 µM) | relative viability (Selumetinib + Crizotinib; first compound 0.6325 µM)
1 | NCI-H2342 | 0.611 | 0.6 | 0.46 | 0.59 | 0.838 | 0.835 | 0.789 | 0.975 | 0.462 | 0.554 | 0.543 | 0.401 | 0.475 | – | – | – | –
2 | SK-MES-1 | 0.603 | 0.598 | 0.587 | 0.447 | 0.561 | 0.579 | 0.476 | 0.461 | 0.732 | 0.918 | 0.66 | 0.737 | 0.664 | 1 | 0.905 | 0.974 | 0.741
3 | LCLC-97TM1 | 0.487 | 0.386 | 0.325 | 0.249 | 0.195 | 0.171 | 0.201 | 0.19 | 0.242 | 0.297 | 0.37 | 0.323 | 0.365 | 0.527 | 0.496 | 0.467 | 0.504
4 | HCC-44 | 0.482 | 0.388 | 0.35 | 0.368 | 1.03 | 0.993 | 0.999 | 1.14 | 1.05 | 1.01 | 0.919 | 0.971 | 0.983 | 0.883 | 0.753 | 0.876 | 0.876
5 | 201T | 0.658 | 0.674 | 0.628 | 0.691 | 0.777 | 0.698 | 0.723 | 0.735 | 0.822 | 0.868 | 0.811 | 0.846 | 0.829 | 1.01 | 0.99 | 0.93 | 0.902
6 | HOP-62 | 0.887 | 0.751 | 0.818 | 0.5 | 0.372 | 0.358 | 0.404 | 0.332 | 0.318 | 0.622 | 0.359 | 0.203 | 0.394 | 0.841 | 0.877 | 0.909 | 0.515
7 | NCI-H661 | 0.804 | 0.582 | 0.571 | 0.57 | 0.585 | 0.575 | 0.567 | 0.537 | 0.745 | 0.789 | 0.715 | 0.74 | 0.708 | 1.25 | 0.945 | 1.07 | 1.23
8 | NCI-H2087 | 0.466 | 0.434 | 0.256 | 0.177 | 0.19 | 0.171 | 0.231 | 0.204 | 0.611 | 0.736 | 0.45 | 0.567 | 0.692 | 0.989 | 0.706 | 0.665 | 0.434
9 | NCI-H647 | 0.717 | 0.512 | 0.614 | 0.478 | 0.478 | 0.391 | 0.405 | 0.484 | 0.521 | 0.698 | 0.424 | 0.564 | 0.535 | 1.14 | 0.942 | 0.926 | 0.99
10 | SW 1573 | 0.515 | 0.449 | 0.464 | 0.458 | 0.599 | 0.56 | 0.522 | 0.545 | 0.581 | 0.516 | 0.479 | 0.473 | 0.399 | 0.762 | 0.683 | 0.639 | 0.597
11 | A-427 | 0.482 | 0.327 | 0.321 | 0.288 | 0.731 | 0.781 | 0.812 | 0.794 | 0.709 | 0.709 | 0.821 | 0.657 | 0.778 | 0.88 | 0.768 | 0.73 | 0.701
12 | NCI-H520 | 0.242 | 0.243 | 0.243 | 0.238 | 0.826 | 0.677 | 0.749 | 0.776 | 0.388 | 0.315 | – | 0.327 | 0.387 | 0.791 | 0.766 | 0.764 | 0.809
13 | NCI-H1755 | 0.745 | 0.698 | 0.681 | 0.673 | 0.78 | 0.753 | 0.778 | 0.752 | 0.879 | 0.873 | 0.917 | 0.832 | 0.831 | 0.895 | 0.765 | 0.802 | 0.842
14 | NCI-H1975 | 0.8 | 0.57 | 0.676 | 0.527 | 0.332 | 0.34 | 0.37 | 0.31 | 0.754 | 0.821 | 0.74 | 0.811 | 0.674 | 1.1 | 0.898 | 0.933 | 0.766
15 | Calu-6 | – | – | – | – | – | – | – | – | 0.609 | 0.619 | 0.602 | 0.554 | 0.546 | 0.804 | 0.603 | 0.51 | 0.343
16 | SK-LU-1 | 0.339 | 0.331 | 0.357 | 0.208 | 0.522 | 0.442 | 0.424 | 0.412 | 0.447 | 0.665 | 0.477 | 0.574 | 0.623 | 0.922 | 0.881 | 0.828 | 0.46
17 | EMC-BAC-2 | 0.42 | 0.447 | 0.511 | 0.483 | 0.909 | 0.833 | 0.937 | 0.774 | 0.503 | 0.554 | 0.5 | 0.497 | 0.471 | 0.754 | 0.719 | 0.778 | 0.834
18 | LK-2 | 0.2 | 0.229 | 0.203 | 0.189 | 0.834 | 0.753 | 0.844 | 0.69 | 0.934 | 0.98 | 0.848 | 0.619 | 0.716 | 0.239 | 0.234 | 0.229 | 0.262
19 | NCI-H23 | 0.605 | 0.561 | 0.526 | 0.443 | 0.4 | 0.402 | 0.322 | 0.331 | 0.311 | 0.26 | 0.367 | 0.376 | 0.304 | 0.583 | 0.47 | 0.328 | 0.406
